This is an account of results in US10398689B2, “Benzopiperidine derivative, preparation method thereof and medical use thereof” (Jiangsu Hengrui Medicine Co., Ltd., priority 2015, dated 2019).

Data set [1] in a line: Pharmacokinetics assay in BALB/C nude mice after intragastrical administration. It is filed as in vivo. As to conditions: female, mouse, po, 3 mg/kg, plasma; for Vd/F: read-out: Apparent Distribution Volume Vz/F; for AUC: read-out: Area Under Curve AUC; for CL/F: read-out: Clearance CL/F; for half-life: read-out: Half-Life t1/2 (converted); for MRT: read-out: Mean Residence Time MRT; for Cmax: read-out: Plasma Conc. Cmax. Here is the method: BALB/C nude mice were used as test animals. The drug concentration in plasma at different time points was determined by LC/MS/MS after intragastrical administration of the compounds of Examples 1, 7, 8, 10, 11, 14, 16, 39 and 42 to BALB/C nude mice. The pharmacokinetic behavior of the compounds of the compounds of the present invention was studied and evaluated in BALB/C nude mice.
Eighty-one (81) female BALB/C nude mice, were equally divided into 9 groups, which were purchased from SINO-BRITSH SIPPR/BK LAB. ANIMAL LTD., CO, with Certificate No.: SOCK (Shanghai) 2008-0016.
The appropriate amount of each test compound was weighed, and successively added with 9% PEG400+0.5% tween 80+0.5% PVP+90% aqueous solution of 0.5% CMC.
After an overnight fasting, 81 female BALB/C nude mice were equally divided into 9 groups; and administered the test compounds intragastrically at an administration volume of 0.2 mL/10 g.
81 female Balb/C nude mice were administered the test compounds intragastrically after an overnight fasting. Blood (0.1 mL) was taken (3 animals at each time point) at 0.5, 1.0, 2.0, 4.0, 6.0, 8.0, 11.0, and 24.0 h after administration. The samples were stored in heparinized test tubes, and centrifuged for 10 minutes at 3,500 rpm to separate the blood plasma. The plasma samples were stored at −20° C.
The concentration of the prototype drug in the plasma and in the solution to be administered was determined by liquid chromatography tandem mass spectrometry (LC/MS MS).

Data set [2] deals with T1, ER (estrogen receptor) (Homo sapiens, UniProt P03372).
T1 construct: MCF-7/ERE-luciferase monoclonal cells were selected by transfection of MCF-7; host or cells: MCF-7/ERE-luciferase (only the ERE-luciferase reporter was transfected)
T1 sequence (P03372 1-595): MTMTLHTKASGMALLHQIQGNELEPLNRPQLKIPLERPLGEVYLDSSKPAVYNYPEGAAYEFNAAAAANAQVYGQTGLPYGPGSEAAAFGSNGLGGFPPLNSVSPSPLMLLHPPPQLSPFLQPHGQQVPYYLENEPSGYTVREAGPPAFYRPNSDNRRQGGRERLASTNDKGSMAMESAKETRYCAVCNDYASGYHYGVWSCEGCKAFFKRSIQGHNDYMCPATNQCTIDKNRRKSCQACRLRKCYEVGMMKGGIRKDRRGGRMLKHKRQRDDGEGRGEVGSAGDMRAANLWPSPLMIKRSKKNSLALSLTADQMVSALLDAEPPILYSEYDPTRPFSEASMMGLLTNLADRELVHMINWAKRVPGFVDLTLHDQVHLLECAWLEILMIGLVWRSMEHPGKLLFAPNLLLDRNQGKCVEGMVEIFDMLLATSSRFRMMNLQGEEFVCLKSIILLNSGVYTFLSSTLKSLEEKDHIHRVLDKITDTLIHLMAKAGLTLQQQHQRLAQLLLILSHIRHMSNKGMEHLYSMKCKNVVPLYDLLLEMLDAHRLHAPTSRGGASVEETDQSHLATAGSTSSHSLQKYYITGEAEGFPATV
Nature of the data set: Inhibition of the binding of estrogen (E) to estrogen receptor (ER), MCF-7/ERE-luciferase reporter cells. The conditions noted are these: MCF-7/ERE-luciferase cells, 0.1 nM estradiol, 24 hours, chemiluminescence; read-out: IC50 value of inhibition effect on the binding of E to ER. It is filed as cell-based. The protocol:
The compounds of the present invention have an inhibition effect on the binding of E (estrogen) to ER (estrogen receptor), thereby blocking the binding of a complex of E and ER complex to ERE (estrogen responsive element), and subsequently blocking the expression of downstream luciferase protein.
The inhibition effect of the compounds on the binding of E to ER in vitro was tested by the following method.
The object of this experiment was to determine the inhibition effect of the compounds on the binding of E to ER, and the in vitro activity of the compounds was evaluated according to the IC50 values.
ERE was cloned into the upstream of the luciferase gene, and MCF-7/ERE-luciferase monoclonal cells were selected by transfection of MCF-7 (Cell Bank of Chinese Academy of Sciences typical culture preservation Committee, TCHu74). MCF-7/ERE-luciferase cells were inoculated into the MEM medium (hyclone, SH30024.01B) containing 10% charcoal stripped FBS (Moregate, FBSF), 1% sodium pyruvate (Sigma, S8636), 1% nonessential amino acids (Sigma, M7145) and 500 μg/ml G418 in a 96-well plates with a density of 30,000 cells/well, and the cells were incubated under the conditions of 37° C., and 5% CO2. The drug was prepared as a 20 mM stock solution that was later diluted with 100% DMSO in 10 fold concentration gradient, and then diluted 20-fold with the medium DMEM. After incubation for 24 hours, the medium was removed, then 0.1 nM estradiol (Sigma, E2758) and 10 μl of the drug diluted with the medium were added to each well, and the control group was added with DMSO. The plate was gently shaken and incubated in a incubator at 37° C., 5% CO2. After 24 hours, the cell culture medium was discarded, Then, 50 μl of the prepared luciferase substrate (Promega, E6110) was added to each well, and the plate was placed in the dark at room temperature for 10-15 minutes, then the chemiluminescence signal value was determined.
The inhibition effect of the compounds of the present invention on the binding of E to ER was tested by the experiment described above. The values of the chemiluminescence signal vs the logarithmic concentrations of the compounds were plotted using Graphpad Prism, and the measured IC50 values are shown in Table 1.
In general terms: In a reporter assay the amount or activity of a reporter protein is the signal.

The subject of data set [3] is MCF7 cells. The data set can be described thus: Inhibition of the proliferation of MCF7 cells (Cell Titer-Glo). It is filed as cell-based. As to conditions: Homo sapiens, MCF-7 cells, 72 hours, read-out: IC50 value of inhibition effect on the proliferation of MCF7 cells. The protocol: The object of this experiment was to determine the inhibition effect of the compounds on the proliferation activity of MCF7 cells, and the in vitro activity of the compounds was evaluated according to the IC50 values.
MCF-7 cells (Cell Bank of Chinese Academy of Sciences typical culture preservation Committee, TChu 74) were inoculated into the MEM medium (Hyclone, SH30024.01B) containing 10% FBS (Gibco, 10099-141), 1% sodium pyruvate (Sigma, S8636), and 1% nonessential amino acids (Sigma, M7145) in a 96-well plate with a density of 40,000 cells/well, and the cells were incubated under the conditions of 37° C., and 5% CO2. The compound was prepared as a 20 mM stock solution that was later diluted to 1000× final concentration with 100% DMSO, and then diluted with 20-fold medium containing 2% FBS. After incubation for 24 hours, the medium was removed and 90 μl of the medium containing 2% FBS and 10 μl of the drug were added to each well, 10 […] of DMSO was added to the control group, and the blank group contained only 100 μl medium containing 2% FBS. The plate was gently shaken and incubated in a incubator at 37° C., 5% CO2. After 72 hours later, 50 μl of mixed Cell Titer-Glo (Promega, G7571) was added to each well. The plate was shaken until the ingredients were mixed uniformly, and placed at room temperature for 10 minutes, then the chemiluminescence signal value was determined. The inhibition effect of the compound AZD9496 at 100 nM on the proliferation of MCF-7 cells was set to 100%, the maximum inhibition rate of other compounds=(chemiluminescence signal valuenegative control−chemiluminescence signal valuecompound 100 nm)/(chemiluminescence signal valuenegative control−chemiluminescence signal valueAZD9496 100 nm)×100%, and the negative control was a well with 0.5% DMSO.
The values of the chemiluminescence signals vs the logarithmic concentrations of the compounds were plotted using Graghpad Prism to obtain the IC50 values.

pIC50: −log10 of the molar value.

The term AUC denotes concentration integrated over time. By MRT is commonly meant the average time that molecules of a dose stay in the body. A word on the Cmax: it is the maximum level reached in the sampled fluid or tissue. Turning to `CC(C)c1ccc(N2[C@H](c3c(F)cc(/C=C/C(=O)O)cc3F)c3ccc(-c4cnn(C)c4)cc3C[C@H]2C)cc1` [Example 39, (E)-3-(3,5-Difluoro-4-((1S,3R)-2-(4-isopropylphenyl)-3-methyl-6-(1-methyl-1H-pyrazol-4-yl)-1,2,3,4-tetrahydroisoquinolin-1-yl)phenyl)acrylic acid], in data set [1], the Vd/F is 1.53 L/kg, the AUC is 10200 ng·h/mL, the CL/F amounted to 4.92 mL/min/kg and the half-life is 3.6 h. In data set [1], the MRT was found to be 7.02 h and the Cmax is 1760 ng/mL. In data set [2], the pIC50 was 9.77. In addition, the pIC50 in data set [3] was 9.38.
Consider `CC1Cc2cc(-c3cnn(C)c3)ccc2C(c2ccc(/C=C/C(=O)O)cc2)N1c1ccc(C2CC2)cc1` [Example 10, (E)-3-(4-((1R,3R/1S,3S)-2-(4-Cyclopropylphenyl)-3-methyl-6-(1-methyl-1H-pyrazol-4-yl)-1,2,3,4-tetrahydroisoquinolin-1-yl)phenyl)acrylic acid], for which, in data set [1], the Vd/F was found to be 3.18 L/kg, the exposure (AUC) worked out at 6280 ng·h/mL, the CL/F was 7.96 mL/min/kg and the half-life is 4.61 h. For the same molecule, in data set [1], the MRT turned out to be 7.08 h and the highest concentration (Cmax) is 1070 ng/mL. Moreover, the pIC50 in data set [2] is 8.97. Moreover, the pIC50 in data set [3] was 9.52.
In the case of `CC(C)c1ccc(N2C(C)Cc3cc(-c4cnn(C)c4)ccc3C2c2ccc(/C=C/C(=O)O)cc2)cc1` [Example 16, (E)-3-(4-((1R,3R/1S,3S)-2-(4-Isopropylphenyl)-3-methyl-6-(1-methyl-1H-pyrazol-4-yl)-1,2,3,4-tetrahydroisoquinolin-1-yl)phenyl)acrylic acid], in data set [1], the Vd/F was determined as 1.43 L/kg, the AUC is 9120 ng·h/mL, the CL/F stood at 5.48 mL/min/kg and the half-life is 3.01 h. Moreover, in data set [1], the mean residence time MRT stood at 4.87 h and the maximum concentration (Cmax) turned out to be 1560 ng/mL. Moreover, the pIC50 in data set [2] is 8.67. In data set [3], the pIC50 is 9.03.
In the case of `CCc1ccc(N2C(C)Cc3cc(-c4cnn(CC)c4)ccc3C2c2ccc(/C=C/C(=O)O)cc2)cc1` [Example 17, (E)-3-(4-((1R,3R/1S,3S)-6-(1-Ethyl-1H-pyrazol-4-yl)-2-(4-ethylphenyl)-3-methyl-1,2,3,4-tetrahydroisoquinolin-1-yl)phenyl)acrylic acid], the values for the pIC50 in data set [2] and in data set [3] were 8.48 and 9.19, respectively.
Taken in the same sequence, the figures for `CC(C)c1ccc(N2C(C)Cc3cc(-c4cnn(C(F)F)c4)ccc3C2c2ccc(/C=C/C(=O)O)cc2)cc1` (centres unmarked) [Example 49] were 8.46 and 8.98.
Consider `CCn1cc(-c2ccc3c(c2)CC(C)N(c2ccc(C4CC4)cc2)C3c2c(F)cc(/C=C/C(=O)O)cc2F)cn1` [Example 30, (E)-3-(4-((1S,3R/1R,3S)-2-(4-Cyclopropylphenyl)-6-(1-ethyl-1H-pyrazol-4-yl)-3-methyl-1,2,3,4-tetrahydroisoquinolin-1-yl)-3,5-difluorophenyl)acrylic acid], for which the pIC50 in data set [2] is 9.47; in data set [3] it was 8.57.
On to `CCn1cc(-c2ccc3c(c2)CC(C)N(c2ccc(C4CC4)cc2F)C3c2ccc(/C=C/C(=O)O)cc2)cn1` [Example 22, (E)-3-(4-((1R,3R/1S,3S)-2-(4-Cyclopropyl-2-fluorophenyl)-6-(1-ethyl-1H-pyrazol-4-yl)-3-methyl-1,2,3,4-tetrahydroisoquinolin-1-yl)phenyl)acrylic acid], for which the pIC50 was 9.00 in data set [2] and 9.24 in data set [3].
With `CC(C)c1ccc(N2C(C)Cc3cc(-c4cn[nH]c4)ccc3C2c2ccc(/C=C/C(=O)O)cc2)cc1` [Example 48, (E)-3-(4-((1R,3R/1S,3S)-2-(4-Isopropylphenyl)-3-methyl-6-(1H-pyrazol-4-yl)-1,2,3,4-tetrahydroisoquinolin-1-yl)phenyl)acrylic acid], the pIC50 in data set [2] is 9.15; in data set [3], 9.23.
With `CCc1ccc(N2C(C)Cc3cc(-c4cnn(CC)c4)ccc3C2c2ccc(/C=C/C(=O)O)cc2)c(Cl)c1` [Example 23, (E)-3-(4-((1R,3R/1S,3S)-2-(2-Chloro-4-ethylphenyl)-6-(1-ethyl-1H-pyrazol-4-yl)-3-methyl-1,2,3,4-tetrahydroisoquinolin-1-yl)phenyl)acrylic acid], the pIC50 in data set [2] is 9.07; in data set [3], 9.09.
Turning to `CCn1cc(-c2ccc3c(c2)CC(C)N(c2ccc(C4CC4)cc2)C3c2ccc(/C=C/C(=O)O)cc2)cn1` [Example 13, (E)-3-(4-((1R,3R/1S,3S)-2-(4-Cyclopropylphenyl)-6-(1-ethyl-1H-pyrazol-4-yl)-3-methyl-1,2,3,4-tetrahydroisoquinolin-1-yl)phenyl)acrylic acid], the pIC50 was 9.57 in data set [2] and 8.95 in data set [3].
